Measurements as given in patent US20260070945A1, “MACROCYCLIC IMMUNOMODULATORS” (Bristol-Myers Squibb Company, priority 2022, published 2026).
*1 amine or outer side, *2 acyl side, *3 side chain or, on linkers, in order; H or OH if unused. Where a SMILES comes first, the peptide text is derived from it. Bridges are numbered along the chain shown (N, C = ends). [ ]: non-standard residue; d: D form. The star is where a group is joined. ξ: configuration not given here. Trp(1-CH2COOH) = N[C@@H](Cc1cn(CC(=O)O)c2ccccc12)C(=O)O; Trp(βS-Me) = C[C@@H](c1c[nH]c2ccccc12)[C@H](N)C(=O)O; Phe(3-CF3) = N[C@@H](Cc1cccc(C(F)(F)F)c1)C(=O)O; Phe(4-COOH) = N[C@@H](Cc1ccc(C(=O)O)cc1)C(=O)O; Bip = N[C@@H](Cc1ccc(-c2ccccc2)cc1)C(=O)O; Phe(4-NH2) = Nc1ccc(C[C@H](N)C(=O)O)cc1; Phe(3-Me) = Cc1cccc(C[C@H](N)C(=O)O)c1; NH(CH2)8CO = O=C(CCCCCCCCN[*:1])[*:2]; Val(3-OH) = CC(C)(O)[C@H](N)C(=O)O; 4Pal = N[C@@H](Cc1ccncc1)C(=O)O; Cha = N[C@@H](CC1CCCCC1)C(=O)O; Ile(3ξ) = CCC(C)[C@H](N)C(=O)O; Thr(3ξ) = CC(O)[C@H](N)C(=O)O; ξY = NC(Cc1ccc(O)cc1)C(=O)O; Carboxymethyl = O=C(O)C*; NMeA = CN[C@@H](C)C(=O)O; Orn = NCCC[C@H](N)C(=O)O; Aun = NCCCCCCCCCCC(=O)O; Dab = NCC[C@H](N)C(=O)O; AEEA = NCCOCCOCC(=O)O; Ac3c = NC1(C(=O)O)CC1

molecular target: T1, PD-1/PD-L1 interaction (PE-labeled human PD-L1-Ig binding to Jurkat cell line over-expressing human PD-1) (Homo sapiens, UniProt Q15116); test: Jurkat-PD-1 Cell Binding High-Content Screening Assay (CBA); conditions: Jurkat-hPD-1 cells, PE-labeled PD-L1-Ig 20 nM final; read-out: Jurkat HPD1 PDL1 IC50
T1 construct: expressed in transfected cells; host or cells: Jurkat
How it was run: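 Binding of 20 nM (final) PE-tagged PD-L1-Ig to compound-pretreated Jurkat-hPD-1 cells was measured by high-content imaging after 1 h. Pretreatment ran 2 h at 37 °C in DMEM with 10% fetal calf serum.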

T1 sequence (Q15116 25-288): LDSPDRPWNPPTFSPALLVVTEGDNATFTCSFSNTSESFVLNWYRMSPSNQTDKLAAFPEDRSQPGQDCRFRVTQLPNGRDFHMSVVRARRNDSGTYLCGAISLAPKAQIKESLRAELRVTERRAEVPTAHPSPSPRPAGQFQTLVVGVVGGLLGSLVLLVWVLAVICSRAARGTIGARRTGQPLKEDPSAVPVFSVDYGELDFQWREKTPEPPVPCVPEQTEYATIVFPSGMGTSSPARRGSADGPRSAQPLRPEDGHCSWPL

SMILES | IC50 [nM]
Cc1cccc(C[C@@H]2NC(=O)[C@H](CC(=O)O)NC(=O)[C@H](Cc3ccc(OCC(=O)O)cc3)NC(=O)[C@H]([C@@H](C)O)NC(=O)CSC[C@@H](C(=O)N[C@@H](CCCN)C(=O)NCCOCCOCC(=O)NCCCCCCCCCCC(=O)O)NC(=O)[C@H](CCC(=O)O)NC(=O)[C@H](C(C)C)NC(=O)[C@H](CC3CCCCC3)NC(=O)[C@H](CC(N)=O)NC(=O)[C@@H](CC(C)C)NC(=O)[C@H](C)N(C)C(=O)[C@H](Cc3ccc(OCC(=O)O)cc3)NC(=O)[C@H](Cc3ccc(-c4ccccc4)cc3)NC(=O)[C@H](Cc3ccc(OCC(=O)O)cc3)NC2=O)c1 [Example 1366] ({CH2CO}-TY(Carboxymethyl)D[Phe(3-Me)]Y(Carboxymethyl)[Bip]Y(Carboxymethyl)[NMeA][dL]N[Cha]VEC[Orn][AEEA][Aun]-OH; thioether N-14) | 128
CC(=O)NCCCC[C@@H]1NC(=O)[C@H](Cc2ccc(-c3ccccc3)cc2)NC(=O)[C@H](C(C)C)NC(=O)[C@H](Cc2cccc(C)c2)NC(=O)[C@H](CC(=O)O)NC(=O)[C@H](Cc2ccc(OCC(=O)O)cc2)NC(=O)[C@H](CCCNC(=N)N)NC(=O)CSC[C@@H](C(=O)N[C@@H](CCN)C(=O)NCCCCCCCCCCC(=O)O)NC(=O)[C@H](C(C)O)NC(=O)[C@H](C(C)C)NC(=O)[C@H](CC2CCCCC2)NC(=O)[C@H](CCN)NC(=O)[C@@H](CC(C)C)NC(=O)[C@H](C)N(C)C1=O (stereo partly drawn) [Example 2380] ({CH2CO}-RY(Carboxymethyl)D[Phe(3-Me)]V[Bip]K(Ac)[NMeA][dL][Dab][Cha]V[Thr(3ξ)]C[Dab][Aun]-OH; thioether N-14) | 14.6
CC(C)C[C@H]1NC(=O)[C@H](C)N(C)C(=O)[C@H](Cc2ccc(OCC(=O)O)cc2)NC(=O)[C@H](Cc2ccc(-c3ccccc3)cc2)NC(=O)[C@H](Cc2ccc(OCC(=O)O)cc2)NC(=O)[C@H](Cc2c[nH]c3ccccc23)NC(=O)[C@H](CC(=O)O)NC(=O)[C@H](Cc2ccncc2)NC(=O)[C@H](Cc2ccc(OCC(=O)O)cc2)NC(=O)CSC[C@@H](C(=O)N[C@@H](CCN)C(=O)NCCOCCOCC(=O)NCCCCCCCCCCC(=O)O)NC(=O)[C@H]([C@@H](C)O)NC(=O)[C@H](C(C)C)NC(=O)[C@H](CC2CCCCC2)NC(=O)[C@H](CCN)NC1=O [Example 1381] ({CH2CO}-Y(Carboxymethyl)[4Pal]DWY(Carboxymethyl)[Bip]Y(Carboxymethyl)[NMeA][dL][Dab][Cha]VTC[Dab][AEEA][Aun]-OH; thioether N-14) | 27.4
Cc1cccc(C[C@@H]2NC(=O)[C@H](CC(=O)O)NC(=O)[C@H](Cc3ccc(C(=O)O)cc3)NC(=O)[C@H](Cc3ccc(OCC(=O)O)cc3)NC(=O)CSC[C@@H](C(=O)NCCCCCCCCCCC(=O)O)NC(=O)[C@H](C(C)O)NC(=O)[C@H](C(C)C)NC(=O)[C@H](CC3CCCCC3)NC(=O)[C@H](CCN)NC(=O)[C@@H](CC(C)C)NC(=O)[C@H](C)N(C)C(=O)[C@H](Cc3ccc(C(=O)O)cc3)NC(=O)[C@H](Cc3ccc(-c4ccccc4)cc3)NC(=O)[C@H](CC(C)C)NC2=O)c1 (stereo partly drawn) [Example 2332] ({CH2CO}-Y(Carboxymethyl)[Phe(4-COOH)]D[Phe(3-Me)]L[Bip][Phe(4-COOH)][NMeA][dL][Dab][Cha]V[Thr(3ξ)]C[Aun]-OH; thioether N-14) | 343
Cc1cccc(C[C@@H]2NC(=O)[C@H](CC(=O)O)NC(=O)[C@H](Cc3ccc(OCC(=O)O)cc3)NC(=O)[C@H](CCCNC(=N)N)NC(=O)CSC[C@@H](C(=O)N[C@H](CC(N)=O)C(=O)NCCCCCCCCCCC(=O)O)NC(=O)[C@H](C(C)C)NC(=O)[C@H](C(C)C)NC(=O)[C@H](CC3CCCCC3)NC(=O)[C@H](CCN)NC(=O)[C@@H](CC(C)C)NC(=O)[C@H](C)N(C)C(=O)[C@H](Cc3ccc(OCC(=O)O)cc3)NC(=O)[C@H](Cc3ccc(-c4ccccc4)cc3)NC(=O)[C@H](Cc3ccc(OCC(=O)O)cc3)NC2=O)c1 [Example 2360] ({CH2CO}-RY(Carboxymethyl)D[Phe(3-Me)]Y(Carboxymethyl)[Bip]Y(Carboxymethyl)[NMeA][dL][Dab][Cha]VVC[dN][Aun]-OH; thioether N-14) | 26.9
CC(C)C[C@@H]1NC(=O)[C@H]([C@@H](C)c2c[nH]c3ccccc23)NC(=O)[C@H](CC(=O)O)NC(=O)[C@H](Cc2ccc(OCC(=O)O)cc2)NC(=O)[C@H](Cc2ccc(OCC(=O)O)cc2)NC(=O)CSC[C@@H](C(=O)NC2(C(=O)NCCOCCOCC(=O)NCCCCCCCCCCC(=O)O)CC2)NC(=O)[C@H](CCC(N)=O)NC(=O)[C@H](C(C)C)NC(=O)[C@H](CC2CCCCC2)NC(=O)[C@H](CCN)NC(=O)[C@@H](CC(C)C)NC(=O)[C@H](C)N(C)C(=O)[C@H](C(C)C)NC(=O)[C@H](Cc2ccc(-c3ccccc3)cc2)NC1=O [Example 1272] ({CH2CO}-Y(Carboxymethyl)Y(Carboxymethyl)D[Trp(βS-Me)]L[Bip]V[NMeA][dL][Dab][Cha]VQC[Ac3c][AEEA][Aun]-OH; thioether N-14) | 40.3
CCC(C)[C@@H]1NC(=O)[C@H](Cc2ccc(-c3ccccc3)cc2)NC(=O)[C@H](CC(C)C)NC(=O)[C@H](Cc2c[nH]c3ccccc23)NC(=O)[C@H](CC(=O)O)NC(=O)[C@H](Cc2ccc(O)cc2)NC(=O)[C@H](CC(N)=O)NC(=O)CSC[C@@H](C(=O)N[C@@H](C)C(=O)NCCOCCOCC(=O)NCCCCCCCCCCC(=O)O)NC(=O)[C@H](CO)NC(=O)[C@H](C(C)C)NC(=O)[C@H](CC2CCCCC2)NC(=O)[C@H](CCN)NC(=O)[C@@H](CC(C)C)NC(=O)[C@H](C)N(C)C1=O (stereo partly drawn) [Example 2072] ({CH2CO}-NYDWL[Bip][Ile(3ξ)][NMeA][dL][Dab][Cha]VSCA[AEEA][Aun]-OH; thioether N-14) | 25.4
Cc1cccc(C[C@@H]2NC(=O)[C@H](CC(=O)O)NC(=O)[C@H](Cc3cn(CC(=O)O)c4ccccc34)NC(=O)[C@H](CCN)NC(=O)CSC[C@@H](C(=O)N[C@@H](CCN)C(=O)NCCCCCCCCCCC(=O)O)NC(=O)[C@H]([C@@H](C)O)NC(=O)[C@H](C(C)C)NC(=O)[C@H](CC3CCCCC3)NC(=O)[C@H](CCN)NC(=O)[C@@H](CC(C)C)NC(=O)[C@H](C)N(C)C(=O)[C@H](Cc3ccc(OCC(=O)O)cc3)NC(=O)[C@H](Cc3ccc(-c4ccccc4)cc3)NC(=O)C(Cc3ccc(OCC(=O)O)cc3)NC2=O)c1 (stereo partly drawn) [Example 1133] ({CH2CO}-[Dab][Trp(1-CH2COOH)]D[Phe(3-Me)][ξY](Carboxymethyl)[Bip]Y(Carboxymethyl)[NMeA][dL][Dab][Cha]VTC[Dab][Aun]-OH; thioether N-14) | 29.3
CC(C)C[C@@H]1NC(=O)[C@H](Cc2c[nH]c3ccccc23)NC(=O)[C@H](CC(=O)O)NC(=O)[C@H](Cc2ccc(O)cc2)NC(=O)[C@H](Cc2ccncc2)NC(=O)CSC[C@@H](C(=O)N[C@@H](CCCN)C(=O)NCCOCCOCC(=O)NCCCCCCCCCCC(=O)O)NC(=O)[C@H](CCCN)NC(=O)[C@H](C(C)C)NC(=O)[C@H](CC2CCCCC2)NC(=O)[C@H](CCN)NC(=O)[C@@H](CC(C)C)NC(=O)[C@H](C)N(C)C(=O)[C@H](C(C)C)NC(=O)[C@H](Cc2ccc(-c3ccccc3)cc2)NC1=O [Example 2161] ({CH2CO}-[4Pal]YDWL[Bip]V[NMeA][dL][Dab][Cha]V[Orn]C[Orn][AEEA][Aun]-OH; thioether N-14) | 122

same assay, conditions: PE-labeled PD-L1-Ig 20 nM final, Jurkat-hPD-1 cells; read-out: Jurkat HPD1 PDL1 IC50

SMILES | IC50 [nM]
Cc1cccc(C[C@@H]2NC(=O)[C@H](CC(=O)O)NC(=O)[C@H](Cc3ccc(OCC(=O)O)cc3)NC(=O)[C@H](C(C)O)NC(=O)CSC[C@@H](C(=O)N[C@@H](CCN)C(=O)NCCOCCOCC(=O)NCCCCCCCCCCC(=O)O)NC(=O)[C@H](CCC(=O)O)NC(=O)[C@H](C(C)(C)O)NC(=O)[C@H](CC3CCCCC3)NC(=O)[C@H](CCN)NC(=O)[C@@H](CC(C)C)NC(=O)[C@H](C)N(C)C(=O)[C@H](Cc3ccc(OCC(=O)O)cc3)NC(=O)[C@H](Cc3ccc(-c4ccccc4)cc3)NC(=O)[C@H](Cc3ccc(OCC(=O)O)cc3)NC2=O)c1 (stereo partly drawn) [Example 2508] ({CH2CO}-[Thr(3ξ)]Y(Carboxymethyl)D[Phe(3-Me)]Y(Carboxymethyl)[Bip]Y(Carboxymethyl)[NMeA][dL][Dab][Cha][Val(3-OH)]EC[Dab][AEEA][Aun]-OH; thioether N-14) | 40.6
CC(C)C[C@H]1NC(=O)[C@H](C)N(C)C(=O)[C@H](Cc2ccc(C(=O)O)cc2)NC(=O)[C@H](Cc2ccc(-c3ccccc3)cc2)NC(=O)[C@H](Cc2ccc(C(=O)O)cc2)NC(=O)[C@H](Cc2cccc(C(F)(F)F)c2)NC(=O)[C@H](CC(=O)O)NC(=O)[C@H](Cc2ccc(C(=O)O)cc2)NC(=O)[C@H](Cc2ccc(OCC(=O)O)cc2)NC(=O)CSC[C@@H](C(=O)N[C@@H](CCN)C(=O)NCCCCCCCCCCC(=O)O)NC(=O)[C@H](CO)NC(=O)[C@H](C(C)(C)O)NC(=O)[C@H](CC2CCCCC2)NC(=O)[C@H](CCN)NC1=O [Example 2585] ({CH2CO}-Y(Carboxymethyl)[Phe(4-COOH)]D[Phe(3-CF3)][Phe(4-COOH)][Bip][Phe(4-COOH)][NMeA][dL][Dab][Cha][Val(3-OH)]SC[Dab][Aun]-OH; thioether N-14) | 2.5
Cc1cccc(C[C@@H]2NC(=O)[C@H](CC(=O)O)NC(=O)[C@H](Cc3ccc(N)cc3)NC(=O)[C@H]([C@@H](C)O)NC(=O)CSC[C@@H](C(=O)N[C@@H](CCN)C(=O)NCCCCCCCCC(=O)NCCCCCCCCCCC(=O)O)NC(=O)[C@H](CCCN)NC(=O)[C@H](C(C)C)NC(=O)[C@H](CC3CCCCC3)NC(=O)[C@H](CCN)NC(=O)[C@@H](CC(C)C)NC(=O)[C@H](C)N(C)C(=O)[C@H](Cc3ccc(N)cc3)NC(=O)[C@H](Cc3ccc(-c4ccccc4)cc3)NC(=O)[C@H](Cc3ccc(N)cc3)NC2=O)c1 [Example 2689] ({CH2CO}-T[Phe(4-NH2)]D[Phe(3-Me)][Phe(4-NH2)][Bip][Phe(4-NH2)][NMeA][dL][Dab][Cha]V[Orn]C[Dab][NH(CH2)8CO][Aun]-OH; thioether N-14) | 6.1
